From patent US4760136A, “Chartreusin derivatives and salts thereof” (Ishihara Sangyo Kaisha, Ltd., priority 1984, dated 1988)
Structures can show the parent of a compound that is named as a salt. Where two headings read alike, the source gives them in different places.

Legend:
P-388 leukemia cells = experiment: Antitumor activity: P-388 leukemia cells inoculated intraperitoneally, drug administered intravenously, BDF1 mice; assay type: in vivo; conditions: for response vs control in vivo at 60 mg/kg: dose e: 60 mg/kg × 3, i.v. on days 1, 5 and 9; for response vs control in vivo at 80 mg/kg: dose f: 80 mg/kg × 3, i.v. on days 1, 5 and 9
Method in brief: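 Drug dosing was intravenous on the first, fifth and ninth days after intraperitoneal inoculation of P-388 leukemia cells (1×10^6 per mouse) into BDF1 mice. Vehicles were physiological saline alone, or saline with small amounts of sodium carboxymethyl cellulose or Tween-80.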

[1] = Acute toxicity, intravenous (once), ddY mice; assay type: in vivo; conditions: mouse, in vivo, formulated per Preparation Example
Excerpt: In Table 7 are shown acute toxicity values (LD50, mg/kg) in ddY mice in the case of intravenously administering (once) each of the compounds of this invention in the form of preparations shown in the Preparation Examples shown in Table 7.

[2] = Mus musculus, P388, iv, read-out: T/C (%) of MST
[3] = Mus musculus, P388, iv, dose c: 40 mg/kg × 3, i.v. on days 1, 5 and 9, BDF1 mice, P-388 i.p., read-out: T/C (%) of MST
[4] = Mus musculus, P388, iv, BDF1 mice, P-388 i.p., read-out: T/C (%) of MST
[5] = Mus musculus, P388, iv, dose b: 20 mg/kg × 3, i.v. on days 1, 5 and 9, BDF1 mice, P-388 i.p., read-out: T/C (%) of MST
[6] = dose c: 40 mg/kg × 3, i.v. on days 1, 5 and 9, BDF1 mice, P-388 i.p.

Structure (SMILES) | response vs control in vivo at 40 mg/kg (P-388 leukemia cells; [3]) | LD50 ([1]; iv) | response vs control in vivo at 80 mg/kg (P-388 leukemia cells; [4]) | also measured
C/C=C(\C)C(=O)Oc1c2cccc(OC3OC(C)C4OC(c5ccccc5)OC4C3OC3OC(C)C(O)C(OC)C3O)c2c2oc(=O)c3c(C)ccc4oc(=O)c1c2c43 (centres unmarked) [compound 231] |  |  |  | response vs control in vivo at 20 mg/kg (P-388 leukemia cells; [2]): 150%; LD50 [1]: ≥ 40 mg/kg
COC1C(O)C(C)OC(OC2C(Oc3cccc4c(OC(=O)CCNC=O)c5c(=O)oc6ccc(C)c7c(=O)oc(c34)c5c67)OC(C)C3OC(c4c(F)c(F)c(F)c(F)c4F)OC32)C1O (centres unmarked) [compound 113] | 138% | ≥ 40 mg/kg |  | 
COC1C(O)C(C)OC(OC2C(Oc3cccc4c(OC(=O)C5CC5)c5c(=O)oc6ccc(C)c7c(=O)oc(c34)c5c67)OC(C)C3OC(CCc4ccccc4)OC32)C1O (centres unmarked) [compound 233] |  | ≥ 60 mg/kg |  | response vs control in vivo at 60 mg/kg (P-388 leukemia cells; [4]): 165%
COC1C(O)C(C)OC(OC2C(Oc3cccc4c(OC(=O)CCNC=O)c5c(=O)oc6ccc(C)c7c(=O)oc(c34)c5c67)OC(C)C3OC(c4ccc(F)cc4)OC32)C1O (centres unmarked) [compound 92] | 192% | ≥ 40 mg/kg |  | response vs control in vivo at 20 mg/kg (P-388 leukemia cells; [5]): 146%
COC1C(O)C(C)OC(OC2C(Oc3cccc4c(OC(=O)CCCNC(=O)C(F)(F)F)c5c(=O)oc6ccc(C)c7c(=O)oc(c34)c5c67)OC(C)C3OC(c4ccc(F)cc4)OC32)C1O (centres unmarked) [compound 91] |  | ≥ 40 mg/kg |  | T/C (%) of MST (P-388 leukemia cells; [6]): 173%
COC1C(O)C(C)OC(OC2C(Oc3cccc4c(OC(=O)CCNC=O)c5c(=O)oc6ccc(C)c7c(=O)oc(c34)c5c67)OC(C)C3OC(c4cccc(F)c4)OC32)C1O (centres unmarked) [Compound No. 46] | 157% | ≥ 80 mg/kg | 210% | 
COC1C(O)C(C)OC(OC2C(Oc3cccc4c(OC(=O)CCCCCNC(=O)C(F)(F)F)c5c(=O)oc6ccc(C)c7c(=O)oc(c34)c5c67)OC(C)C3OC(c4ccccc4)OC32)C1O (centres unmarked) [compound 78, 6-O-(N-trifluoroacetyl-6-amino-n-hexanoyl)-3',4'-O-benzylidene-chartreusin] | 146% | ≥ 100 mg/kg | 176% | 
CO[C@H]1[C@@H](O)[C@@H](C)O[C@H](O[C@H]2[C@H](Oc3cccc4c(OC(=O)CCCCl)c5c(=O)oc6ccc(C)c7c(=O)oc(c34)c5c67)O[C@H](C)[C@@H]3OC(C)(C)O[C@@H]32)[C@@H]1O [compound 204] | 174% | ≥ 60 mg/kg |  | 
COC1C(O)C(C)OC(OC2C(Oc3cccc4c(OC(=O)CCCCCCCNC(=O)C(F)(F)F)c5c(=O)oc6ccc(C)c7c(=O)oc(c34)c5c67)OC(C)C3OC(c4cccc(F)c4)OC32)C1O (centres unmarked) [Compound No. 64] | 165% | ≥ 80 mg/kg | 210% | 
CCCC(=O)Oc1c2cccc(O[C@@H]3O[C@H](C)[C@@H]4OC(c5ccccc5OC)O[C@@H]4[C@H]3O[C@H]3O[C@H](C)[C@H](O)[C@H](OC)[C@H]3O)c2c2oc(=O)c3c(C)ccc4oc(=O)c1c2c43 (some centres unmarked) [compound 216] |  |  |  | response vs control in vivo at 40 mg/kg (P-388 leukemia cells; [2]): 171%; LD50 [1]: ≥ 40 mg/kg
CO[C@H]1[C@@H](O)[C@@H](C)O[C@H](O[C@H]2[C@H](Oc3cccc4c(OC(=O)c5ccc([N+](=O)[O-])cc5)c5c(=O)oc6ccc(C)c7c(=O)oc(c34)c5c67)O[C@H](C)[C@@H]3OC(c4ccccc4)O[C@@H]32)[C@@H]1O (some centres unmarked) [Compound No. 186] | 176% | ≥ 80 mg/kg |  | 
CO[C@H]1[C@@H](O)[C@@H](C)O[C@H](O[C@H]2[C@H](Oc3cccc4c(OC(=O)c5ccc(C(F)(F)F)cc5)c5c(=O)oc6ccc(C)c7c(=O)oc(c34)c5c67)O[C@H](C)[C@@H]3OC(c4ccccc4)O[C@@H]32)[C@@H]1O (some centres unmarked) [compound 195] | 165% | ≥ 40 mg/kg |  | 
COC1C(O)C(C)OC(OC2C(Oc3cccc4c(OC(=O)CCCNC(=O)OCc5ccccc5)c5c(=O)oc6ccc(C)c7c(=O)oc(c34)c5c67)OC(C)C3OC(C)(C)OC32)C1O (centres unmarked) [compound 109] |  | ≥ 100 mg/kg |  | response vs control in vivo at 60 mg/kg (P-388 leukemia cells; [4]): 145%
COC1C(O)C(C)OC(OC2C(Oc3cccc4c(OC(=O)CCNC(=O)C(Cl)(Cl)Cl)c5c(=O)oc6ccc(C)c7c(=O)oc(c34)c5c67)OC(C)C3OC(c4cccc(Br)c4)OC32)C1O (centres unmarked) [Compound No. 56] | 165% | ≥ 80 mg/kg | 219% | 
COC1C(O)C(C)OC(OC2C(Oc3cccc4c(OC(=O)C(C)CNC(=O)C(F)(F)F)c5c(=O)oc6ccc(C)c7c(=O)oc(c34)c5c67)OC(C)C3OC(c4cccc(C(F)(F)F)c4)OC32)C1O (centres unmarked) [Compound No. 30] | 171% | ≥ 80 mg/kg | 257% | 
CCN(CC)CCC(=O)Oc1c2cccc(OC3OC(C)C4OC(c5cccc(F)c5)OC4C3OC3OC(C)C(O)C(OC)C3O)c2c2oc(=O)c3c(C)ccc4oc(=O)c1c2c43 (stereo not drawn) [Compound No. 15, 6-O-(N,N-diethyl-β-alanyl)-3',4'-O-(m-fluorobenzylidene)-chartreusin hydrochloride] |  | ≥ 30 mg/kg |  | response vs control in vivo at 20 mg/kg (P-388 leukemia cells; [5]): 189%
COC1C(O)C(C)OC(OC2C(Oc3cccc4c(OC(=O)CCN)c5c(=O)oc6ccc(C)c7c(=O)oc(c34)c5c67)OC(C)C3OC(c4ccccc4)OC32)C1O (centres unmarked) [Compound No. 18] |  | ≥ 40 mg/kg |  | T/C (%) of MST (P-388 leukemia cells; dose b: 20 mg/kg × 3, i.v. on days 1, 5 and 9, BDF1 mice, P-388 i.p.): 196%; T/C (%) of MST (P-388 leukemia cells; [6]): 238%
COC1C(O)C(C)OC(OC2C(Oc3cccc4c(OC(=O)CCC(C)=O)c5c(=O)oc6ccc(C)c7c(=O)oc(c34)c5c67)OC(C)C3OC(C)(C)OC32)C1O (centres unmarked) [Compound No. 156] | 160% | ≥ 80 mg/kg | 218% | 
COC1C(O)C(C)OC(OC2C(Oc3cccc4c(OC(=O)CCCNC(=O)OCc5ccccc5)c5c(=O)oc6ccc(C)c7c(=O)oc(c34)c5c67)OC(C)C3OC(c4ccccc4)OC32)C1O (centres unmarked) [compound 76] | 184% | ≥ 40 mg/kg |  | response vs control in vivo at 20 mg/kg (P-388 leukemia cells; [5]): 135%
COC1C(O)C(C)OC(OC2C(Oc3cccc4c(OC(=O)C(Cc5ccccc5)NC(=O)OCc5ccccc5)c5c(=O)oc6ccc(C)c7c(=O)oc(c34)c5c67)OC(C)C3OC(C)(C)OC32)C1O (centres unmarked) [compound 128] |  | ≥ 100 mg/kg |  | response vs control in vivo at 50 mg/kg (P-388 leukemia cells; Mus musculus, P388, iv, dose d: 50 mg/kg × 3, i.v. on days 1, 5 and 9, BDF1 mice, P-388 i.p., read-out: T/C (%) of MST): 146%
COC1C(O)C(C)OC(OC2C(Oc3cccc4c(OC(=O)C(Br)C(C)C)c5c(=O)oc6ccc(C)c7c(=O)oc(c34)c5c67)OC(C)C3OC(C)(C)OC32)C1O (centres unmarked) [Compound No. 172] | 148% | ≥ 80 mg/kg | 195% | 
CCCC(=O)Oc1c2cccc(OC3OC(C)C4OC(c5ccco5)OC4C3OC3OC(C)C(O)C(OC)C3O)c2c2oc(=O)c3c(C)ccc4oc(=O)c1c2c43 (centres unmarked) [compound 228] |  | ≥ 60 mg/kg |  | response vs control in vivo at 60 mg/kg (P-388 leukemia cells; [4]): 140%
COC1C(O)C(C)OC(OC2C(Oc3cccc4c(OC(=O)CNC(=O)CNC(=O)CNC(=O)OCc5ccccc5)c5c(=O)oc6ccc(C)c7c(=O)oc(c34)c5c67)OC(C)C3OC(c4ccccc4)OC32)C1O (centres unmarked) [Compound No. 114, 6-O-(N-Carbobenzyloxy-Glycyl-Glycyl-Glycyl)-3',4'-O-Benzylidene-Chartreusin] | 130% | ≥ 40 mg/kg |  | 
COC1C(O)C(C)OC(OC2C(Oc3cccc4c(OC(=O)C(NC(=O)OCc5ccccc5)C(C)C)c5c(=O)oc6ccc(C)c7c(=O)oc(c34)c5c67)OC(C)C3OC(c4ccccc4)OC32)C1O (centres unmarked) [compound 106] |  | ≥ 40 mg/kg |  | response vs control in vivo at 20 mg/kg (P-388 leukemia cells; [5]): 173%
COC1C(O)C(C)OC(OC2C(Oc3cccc4c(OC(=O)C(Cc5c[nH]c6ccccc56)NC(=O)OCc5ccccc5)c5c(=O)oc6ccc(C)c7c(=O)oc(c34)c5c67)OC(C)C3OC4(CCCCC4)OC32)C1O (centres unmarked) [compound 133] |  | ≥ 100 mg/kg | 139% | 
CO[C@H]1[C@@H](O)[C@@H](C)O[C@H](O[C@H]2[C@H](Oc3cccc4c(OC(=O)C5CC5)c5c(=O)oc6ccc(C)c7c(=O)oc(c34)c5c67)O[C@H](C)[C@@H]3OC(C)(C)O[C@@H]32)[C@@H]1O [Compound No. 177] | 153% | ≥ 80 mg/kg | 208% | 
COC1C(O)C(C)OC(OC2C(Oc3cccc4c(OC(=O)CCCCCBr)c5c(=O)oc6ccc(C)c7c(=O)oc(c34)c5c67)OC(C)C3OC(C)(C)OC32)C1O (centres unmarked) [compound 235] | 145% | ≥ 60 mg/kg |  | 
